According to patent publication US12691124B2, “Methods of controlling and improving brain health” (ICAHN SCHOOL OF MEDICINE AT MOUNT SINAI, priority 2019, dated 2026):

Experiments:
BRD2 or BRD4 = experiment: ChIP sequencing, BRD2 or BRD4 promoter occupancy versus gene expression; assay type: cell-based, mouse
Protocol: Chromatin Immunoprecipitation with Sequencing. Primary cortical neuronal cultures were washed once with PBS then fixed for 10 minutes with a 1% formaldehyde solution in PBS with protease inhibitors (Sigma #P8340) at room temperature. Fixation was quenched adding glycine to a final concentration of 0.125M (5 minutes, room temperature). 10e6 fixed cells were resuspended in 1 ml of lysis buffer (50 mM Hepes KOH, pH7.5, 140 mM NaCl, 1 mM EDTA, 10% glycerol, 0.5% NP-40, 0.25% Triton X-100) and 10 ul of protease inhibitor cocktail (PIC). Samples were rotated for 10 minutes at 4 degrees then spun at 1350 g at 4 C for 10 minutes. Pellets were resuspended in 1 ml of lysis buffer 2 (10 mM Tris-HCl pH8.0, 200 mM NaCl, 1 mM EDTA, 0.5 mM EGTA) and 10 ul PIC.). 5e6 nuclei were sonicated in lysis buffer 3 (10 mM Tris-HCl pH8.0, 100 mM NaCl, 1 mM EDTA, 0.5 mM EGTA, 0.1% Na-Deoxicholate, 0.5% N-Lauroylsarcosine) at 4 degrees for 5 cycles of 30 seconds ON/30 seconds OFF using the Diagenode bioruptor. After, 30 ul of 10% Triton-X100 was added to each sample and then spun for 15 minutes at 20,000 g at 4 degrees. Sonication efficiency was checked by running the samples on a 2% agarose gel to confirm enrichment for fragments from 200-500 bps.
Streptavidin M-280 dynabeads were blocked with 0.5% BSA solution and coupled to 7 ug of antibody (Brd4 #Ab84778, Brd2 Bethyl #A302-583A, Pol2 Ser5 #Ab5408) for at least 8 hours at 4 degrees, rotating. Antibody-coupled beads were then added to sonicated chromatin (20e6 cells for Brd2/Brd4, 10e6 for Pol2) and incubated overnight at 4 degrees. After washing the IPs eight times with wash buffer (50 mM Hepes-KOH pH7.6, 100 mM LiCl, 1 mM EDTA, 1% NP-40, 0.7% Na-Deoxycholate) and once with TE buffer (10 mM Tris-HCl, 1 mM EDTA, 50 mM NaCl), Chromatin was eluted from magnetic beads in 200 ul elution buffer ([…] Tris-HCl pH8.0, 10 mM EDTA, 1% SDS) for 45 minutes at 65 degrees. Samples were de-crosslinked overnight at 65 degrees and proteins and RNA were removed by incubating with RNAse and proteinase k. Samples were purified using the Qiagen PCR purification kit according to the manufacturers protocol.
Samples were end-repaired using the End-IT DNA End-Repair Kit (#ER0720). After 45 minutes incubation, samples were purified using the Qiagen PCR Clean up kit as described above. Samples were adenylated using a reaction mix (200 uM dATP, 1× Klenow buffer NEB2, Klenow Fragment (3′ to 5′ exo-), NEB M0212L) and incubating at 37 degrees for 30 minutes. After, samples were purified as above except using the Minelute columns to minimize sample loss. Adapters were ligated to samples using a reaction mix containing T4 DNA ligase buffer, Solexa adapter oligo mix and 1200 units of T4 DNA ligase. The samples were incubated according to the following PCR program: 1) 20 C for 15 min, 2) 4 C for 2 h, 3) 0.1 C/sec to 16 C, 4) 16 C for 20 min, 5) 0.1 C/sec to 4 C, 6) back to step 2 for 6 cycles. Samples were purified using the Minelute kit as described above. Samples were amplified using a reaction mix containing the Phusion HF buffer, 300 uM dNTP mix, 3% DMSO, diluted Solexa primers 1.0 and 2.0, and 1 unit of Phusion polymerase. Samples were amplified according to the following program: 1) 30 sec at 98 C, 2) 18 cycles of: 10 sec at 98 C, 30 sec at 65 C, 30 sec at 72 C, 3) 5 min 72 C. Prepared samples were then sequenced on the HiSeq 2000 platform by Rockefeller's Genomic Core Facility. Bioinformatic analysis was performed by the Shen Lab. Briefly, raw sequencing data was processed by using Illumina bcl2fastq2 Conversion Software v2.17. The ChIP-seq data was first checked for quality using the various metrics generated by FastQC. Raw sequencing reads were then aligned to the mouse mm9 genome using the default settings of Bowtie (v2.2.0)87. Only uniquely mapped reads were retained, and the alignments were subsequently filtered using the SAMtools package (v0.1.19)88 to remove duplicate reads. […]

microglia in vivo = experiment: TRAP of microglia from striatum and cerebellum after chronic IBET858; parameters: species or system mouse; conditions: 30 mg/kg i.p. once daily, two weeks
Protocol: Cx3Cr1^CreErt2/+; Efl10a mice were orally gavaged 5 times with tamoxifen to induce the expression of gfp-labelled ribosome. Mice were intraperitoneally injected with IBET858 (30 mg/kg) or vehicle control once daily for two weeks. Four hours after either an acute (1 injection) or chronic (2 weeks) injection, mice were decapitated and used for TRAP.
To better understand how IBET858 affects microglia in their homeostatic state, translating ribosome affinity purification (TRAP) after chronic IBET858 administration was used. TRAP is ideal because it prevents the induction of immediate early and pro-inflammatory genes caused by other isolation protocols which can occlude homeostatic transcriptional profiles. Ayata et al., “Epigenetic Regulation of Brain Region-Specific Microglia Clearance Activity,” Nature Neuroscience 21:1049-1060 (2018), which is hereby incorporated by reference in its entirety. As observed in vitro, microglial lineage is maintained after chronic BET inhibition IBET858 as indicated by expression of Hexb, Fcrls, and Fcer1g in either the striatum or cerebellum (FIG. 4B). […] This is especially important because loss of these region-specific gene expression signatures is highly detrimental to brain function. Ayata et al., “Epigenetic Regulation of Brain Region-Specific Microglia Clearance Activity,” Nature Neuroscience 21:1049-1060 (2018), which is hereby incorporated by reference in its entirety. […] Therefore it is likely that BET inhibition can prevent or modulate pathological microglial activation in vivo as occurs during neurodegeneration.

In the case of `CC(=O)N1c2ccc(-c3ccc(CN4CCCCC4)cc3)cc2[C@H](Nc2ccccc2)CC1C` (stereo in doubt) [IBET858], the “displacement of BET proteins from the chromatin” value (BRD2 or BRD4) is reported as “displaces all three BET proteins from the chromatin”, the “down-regulated genes that are bound by Brd2 or Brd4” value (BRD2 or BRD4; 1 week IBET858, 844/1391) is reported as 61% and the “genes with increased promoter occupancy of BRD2 or BRD4 that are also transcriptionally upregulated” value (BRD2 or BRD4; 6 h IBET858) is reported as 212 genes. The “genes with reduced promoter occupancy of BRD2 or BRD4 that are also transcriptionally downregulated” value (BRD2 or BRD4; 6 h IBET858) was 528 genes, the “down-regulated genes that are bound by Brd2 or Brd4” value (BRD2 or BRD4; 12 h IBET858, 733/1158) was 63% and the “gene promoters with reduced BET binding” value (BRD2 or BRD4; short-term treatment 6 h) was “approximately 1000 gene promoters”. For the same compound, the “microglial lineage (Hexb, Fcrls, Fcer1g expression) in striatum or cerebellum” value (microglia in vivo) was “maintained”, the “regional microglial transcriptomic heterogeneity” value (microglia in vivo) was “also unaffected” and the “striatal microglial inflammatory genes (Ccr5, Cd180, Gpr84, Wdfy1)” value (microglia in vivo) was “suppressed”.
